Results reported in patent US20040266623A1, “SYNERGISTIC QUINCLORAC HERBICIDAL COMPOSITIONS” (priority 2003, published 2004).

Key:
Assay in all cases: Greenhouse pot test, postemergent spray, visual control rating converted to percent control
Type in all cases: in vivo
crabgrass = tested on: crabgrass
Experimental: (§1) Pots of crabgrass, dandelion, white clover, and plantain grown in greenhouse soiless growth media were sprayed with a greenhouse pot sprayer at 43.46 gallons of spray solution/acre and allowed to stand in the greenhouse. Visual observation of the effects made by the herbicidal compositions on the plants in the test pots was recorded for control of crabgrass, dandelion, clover and plantain at 24 hours after treatment (HAT), 48 hours after treatment (HAT), 72 hours after treatment (HAT), 7 days after treatment (DAT), 14 days after treatment (DAT) and 21 days after treatment (DAT). A control rating scale of 1 to 9 was used to record the visual observation of the effect of the herbicidal composition on the plants over the time period of the tests. 1=no control, and 9=death of plant, with intervening numbers representing successive degrees of observed effectiveness of the herbicidal composition over time. The 1-9 control rating scale was converted to percent control in the test data charts that follow.
(§2) The test protocol of S. R. Colby as set out in his article entitled “Calculating Synergistic and Antagonistic Responses of Herbicide Compositions,” received for publication Apr. 11, 1966, Contribution No. 3796 and Scientific Article No. 1271 of the Maryland Agricultural Experiment Station, Department pf Agronomy, University of Maryland was followed to evaluate the synergistic properties of the combination of quinclorac plus a herbicidal protox inhibitor, and a combination of quinclorac, plus a herbicidal protox inhibitor plus a herbicidal auxinic agent as compared with the individual herbicides, using Colby's formulas E=X+Y−XY/100 for a two herbicide combination, where E=the expected percent of inhibition of growth by herbicides, X=the percent inhibition of growth by herbicide A at p lb/A, and Y=the percent inhibition of growth by herbicide B at q lb/A, for a given combination of two herbicides. Colby's formula E=X+Y+Z−(XY+XZ+YZ)/100+XYZ/10,000, was used for the three-way herbicide combination evaluation, where E, X and Y are the same as in the two herbicide formula and Z=the percent inhibition of growth by the third herbicide.

white clover = tested on: white clover
Experimental: as §1, §2

dandelion = tested on: dandelion
Experimental: as §1, §2

Cc1nn(-c2cc(NS(C)(=O)=O)c(Cl)cc2Cl)c(=O)n1C(F)F [Sulfentrazone, reference compound]
% Control Crabgrass (crabgrass; Test 2, 7 DAT, 0.02 lbs/A): 22.2% | Control (1-9) Crabgrass (crabgrass; Test 2, 7 DAT, 0.02 lbs/A): 2 | % Control Crabgrass (crabgrass; Test 2, 7 DAT, 0.03 lbs/A): 22.2% | Control (1-9) Crabgrass (crabgrass; Test 2, 7 DAT, 0.03 lbs/A): 2 | % Control Crabgrass (crabgrass; Test 2, 14 DAT, 0.02 lbs/A): 22.2% | Control (1-9) Crabgrass (crabgrass; Test 2, 14 DAT, 0.02 lbs/A): 2 | % Control Crabgrass (crabgrass; Test 2, 14 DAT, 0.03 lbs/A): 22.2% | Control (1-9) Crabgrass (crabgrass; Test 2, 14 DAT, 0.03 lbs/A): 2 | % Control Crabgrass (crabgrass; Test 2, 24 HAT, 0.02 lbs/A): 33.3% | Control (1-9) Crabgrass (crabgrass; Test 2, 24 HAT, 0.02 lbs/A): 3 | % Control Crabgrass (crabgrass; Test 2, 24 HAT, 0.03 lbs/A): 44.4% | Control (1-9) Crabgrass (crabgrass; Test 2, 24 HAT, 0.03 lbs/A): 4 | % Control Crabgrass (crabgrass; Test 2, 72 HAT, 0.02 lbs/A): 33.3% | Control (1-9) Crabgrass (crabgrass; Test 2, 72 HAT, 0.02 lbs/A): 3 | % Control Crabgrass (crabgrass; Test 2, 72 HAT, 0.03 lbs/A): 33.3% | Control (1-9) Crabgrass (crabgrass; Test 2, 72 HAT, 0.03 lbs/A): 3 | % Control Clover (white clover; Test 2, 7 DAT, 0.02 lbs/A): 77.8% | Control (1-9) Clover (white clover; Test 2, 7 DAT, 0.02 lbs/A): 7 | % Control Clover (white clover; Test 2, 7 DAT, 0.03 lbs/A): 55.6% | Control (1-9) Clover (white clover; Test 2, 7 DAT, 0.03 lbs/A): 5 | % Control Clover (white clover; Test 2, 14 DAT, 0.02 lbs/A): 77.8% | Control (1-9) Clover (white clover; Test 2, 14 DAT, 0.02 lbs/A): 7 | % Control Clover (white clover; Test 2, 14 DAT, 0.03 lbs/A): 66.7% | Control (1-9) Clover (white clover; Test 2, 14 DAT, 0.03 lbs/A): 6 | % Control Clover (white clover; Test 2, 24 HAT, 0.02 lbs/A): 22.2% | Control (1-9) Clover (white clover; Test 2, 24 HAT, 0.02 lbs/A): 2 | % Control Clover (white clover; Test 2, 24 HAT, 0.03 lbs/A): 22.2% | Control (1-9) Clover (white clover; Test 2, 24 HAT, 0.03 lbs/A): 2 | % Control Clover (white clover; Test 2, 72 HAT, 0.02 lbs/A): 33.3% | Control (1-9) Clover (white clover; Test 2, 72 HAT, 0.02 lbs/A): 3 | % Control Clover (white clover; Test 2, 72 HAT, 0.03 lbs/A): 22.2% | Control (1-9) Clover (white clover; Test 2, 72 HAT, 0.03 lbs/A): 2 | % Control Dandelion (dandelion; Test 2, 7 DAT, 0.02 lbs/A): 88.9% | Control (1-9) Dandelion (dandelion; Test 2, 7 DAT, 0.02 lbs/A): 8 | % Control Dandelion (dandelion; Test 2, 7 DAT, 0.03 lbs/A): 88.9% | Control (1-9) Dandelion (dandelion; Test 2, 7 DAT, 0.03 lbs/A): 8 | % Control Dandelion (dandelion; Test 2, 14 DAT, 0.02 lbs/A): 88.9% | Control (1-9) Dandelion (dandelion; Test 2, 14 DAT, 0.02 lbs/A): 8 | % Control Dandelion (dandelion; Test 2, 14 DAT, 0.03 lbs/A): 88.9% | Control (1-9) Dandelion (dandelion; Test 2, 14 DAT, 0.03 lbs/A): 8 | % Control Dandelion (dandelion; Test 2, 24 HAT, 0.02 lbs/A): 22.2% | Control (1-9) Dandelion (dandelion; Test 2, 24 HAT, 0.02 lbs/A): 2 | % Control Dandelion (dandelion; Test 2, 24 HAT, 0.03 lbs/A): 22.2% | Control (1-9) Dandelion (dandelion; Test 2, 24 HAT, 0.03 lbs/A): 2 | % Control Dandelion (dandelion; Test 2, 72 HAT, 0.02 lbs/A): 44.4% | Control (1-9) Dandelion (dandelion; Test 2, 72 HAT, 0.02 lbs/A): 4 | % Control Dandelion (dandelion; Test 2, 72 HAT, 0.03 lbs/A): 44.4% | Control (1-9) Dandelion (dandelion; Test 2, 72 HAT, 0.03 lbs/A): 4

CC(C)CCCCCOC(=O)COc1ccc(Cl)cc1Cl [2,4-D IOE]
% Control Crabgrass (crabgrass; Test 1, 7 DAT, 0.70 lbs/A): 44.4% | Control (1-9) Crabgrass (crabgrass; Test 1, 7 DAT, 0.70 lbs/A): 4 | % Control Crabgrass (crabgrass; Test 1, 14 DAT, 0.70 lbs/A): 33.3% | Control (1-9) Crabgrass (crabgrass; Test 1, 14 DAT, 0.70 lbs/A): 3 | % Control Crabgrass (crabgrass; Test 1, 24 HAT, 0.70 lbs/A): 22.2% | Control (1-9) Crabgrass (crabgrass; Test 1, 24 HAT, 0.70 lbs/A): 2 | % Control Crabgrass (crabgrass; Test 1, 48 HAT, 0.70 lbs/A): 44.4% | Control (1-9) Crabgrass (crabgrass; Test 1, 48 HAT, 0.70 lbs/A): 4 | % Control Crabgrass (crabgrass; Test 2, 7 DAT, 0.70 lbs/A): 22.2% | Control (1-9) Crabgrass (crabgrass; Test 2, 7 DAT, 0.70 lbs/A): 2 | % Control Crabgrass (crabgrass; Test 2, 14 DAT, 0.70 lbs/A): 22.2% | Control (1-9) Crabgrass (crabgrass; Test 2, 14 DAT, 0.70 lbs/A): 2 | % Control Crabgrass (crabgrass; Test 2, 24 HAT, 0.70 lbs/A): 33.3% | Control (1-9) Crabgrass (crabgrass; Test 2, 24 HAT, 0.70 lbs/A): 3 | % Control Crabgrass (crabgrass; Test 2, 72 HAT, 0.70 lbs/A): 66.7% | Control (1-9) Crabgrass (crabgrass; Test 2, 72 HAT, 0.70 lbs/A): 6 | % Control Clover (white clover; Test 1, 7 DAT, 0.70 lbs/A): 44.4% | Control (1-9) Clover (white clover; Test 1, 7 DAT, 0.70 lbs/A): 4 | % Control Clover (white clover; Test 1, 14 DAT, 0.70 lbs/A): 88.9% | Control (1-9) Clover (white clover; Test 1, 14 DAT, 0.70 lbs/A): 8 | % Control Clover (white clover; Test 1, 24 HAT, 0.70 lbs/A): 11.1% | Control (1-9) Clover (white clover; Test 1, 24 HAT, 0.70 lbs/A): 1 | % Control Clover (white clover; Test 1, 48 HAT, 0.70 lbs/A): 44.4% | Control (1-9) Clover (white clover; Test 1, 48 HAT, 0.70 lbs/A): 4 | % Control Clover (white clover; Test 2, 7 DAT, 0.70 lbs/A): 66.7% | Control (1-9) Clover (white clover; Test 2, 7 DAT, 0.70 lbs/A): 6 | % Control Clover (white clover; Test 2, 14 DAT, 0.70 lbs/A): 100.0% | Control (1-9) Clover (white clover; Test 2, 14 DAT, 0.70 lbs/A): 9 | % Control Clover (white clover; Test 2, 24 HAT, 0.70 lbs/A): 33.3% | Control (1-9) Clover (white clover; Test 2, 24 HAT, 0.70 lbs/A): 3 | % Control Clover (white clover; Test 2, 72 HAT, 0.70 lbs/A): 66.7% | Control (1-9) Clover (white clover; Test 2, 72 HAT, 0.70 lbs/A): 6 | % Control Dandelion (dandelion; Test 1, 7 DAT, 0.70 lbs/A): 66.7% | Control (1-9) Dandelion (dandelion; Test 1, 7 DAT, 0.70 lbs/A): 6 | % Control Dandelion (dandelion; Test 1, 14 DAT, 0.70 lbs/A): 100.0% | Control (1-9) Dandelion (dandelion; Test 1, 14 DAT, 0.70 lbs/A): 9 | % Control Dandelion (dandelion; Test 1, 24 HAT, 0.70 lbs/A): 33.3% | Control (1-9) Dandelion (dandelion; Test 1, 24 HAT, 0.70 lbs/A): 3 | % Control Dandelion (dandelion; Test 1, 48 HAT, 0.70 lbs/A): 44.4% | Control (1-9) Dandelion (dandelion; Test 1, 48 HAT, 0.70 lbs/A): 4 | % Control Dandelion (dandelion; Test 2, 7 DAT, 0.70 lbs/A): 88.9% | Control (1-9) Dandelion (dandelion; Test 2, 7 DAT, 0.70 lbs/A): 8 | % Control Dandelion (dandelion; Test 2, 14 DAT, 0.70 lbs/A): 100.0% | Control (1-9) Dandelion (dandelion; Test 2, 14 DAT, 0.70 lbs/A): 9 | % Control Dandelion (dandelion; Test 2, 24 HAT, 0.70 lbs/A): 33.3% | Control (1-9) Dandelion (dandelion; Test 2, 24 HAT, 0.70 lbs/A): 3 | % Control Dandelion (dandelion; Test 2, 72 HAT, 0.70 lbs/A): 66.7% | Control (1-9) Dandelion (dandelion; Test 2, 72 HAT, 0.70 lbs/A): 6
